# Test results: patent US6967196B1, “Sulfonamide compounds and uses thereof” (Bristol-Myers Squibb Company, priority 1999, dated 2005)
# Counter-ions that a name gives are not always drawn. Like-named read-outs stand apart in the source and are kept apart here.
# Test system: amyloid β production in transfected H4 (human neuroglioma) cells stably expressing APP constructs
# Experiment: In vitro cell-based assay of inhibitors of amyloid β production (ELISA)
# Details: transfected H4 cells stably expressing APP, amyloid β in medium by ELISA, read-out: ACTIVITY (IC50, inhibition of amyloid β production)
# Procedure, shortened: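 Plate wt/variant APP cells; ≥6 h later swap to medium + compound (10-100 μM screen); incubate ~16 h; sample medium; Aβ ELISA with C-terminal capture / N-terminal detection Abs; quantify vs Aβ standard curve.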
# [1] = Homo sapiens, 16 h, approx. 16 h incubation
# [2] = Homo sapiens, 16 h, approximately 16 hours incubation
# [3] = approximately 16 hours incubation
Compound,IC50 [2],other results
"CC(c1ccccc1OCCN(C)C(=O)C(F)(F)C(F)(F)C(F)(F)F)N(c1cc(F)ccc1F)S(=O)(=O)c1ccc(Cl)cc1 (stereo not shown) [Example 796, N-{2-[2-(1-{[(4-chlorophenyl)sulfonyl]-2,5-difluoroanilino}ethyl)phenoxy]ethyl}-2,2,3,3,4,4,4-heptafluoro-N-methylbutanamide]",–,IC50 (approx. 16 h incubation): 100 to 500 nM
"O=C(c1ccc(F)c(F)c1F)N1CCCCC1CCOc1ccccc1CN(c1cc(F)ccc1F)S(=O)(=O)c1ccc(Cl)cc1 (stereo not shown) [Example 797, 4-chloro-N-(2,5-difluorophenyl)-N-(2-{2-[1-(2,3,4-trifluorobenzoyl)-2-piperidinyl]ethoxy}benzyl)benzenesulfonamide]",–,IC50 [1]: 100 to 500 nM
"CCNC(=O)N(C)CCOc1ccccc1C(C)N(c1cc(F)ccc1F)S(=O)(=O)c1ccc(Cl)cc1 (stereo not shown) [Example 801, 4-chloro-N-(2,5-difluorophenyl)-N-[1-(2-{3-[[(ethylamino)carbonyl](methyl)amino]ethoxy}phenyl)ethyl]benzenesulfonamide]",–,IC50 (approx. 16 h incubation): 100 to 500 nM
"COc1ccc([S+]([O-])CCCOc2ccccc2CN(c2cc(F)ccc2F)S(=O)(=O)c2ccc(Cl)cc2)cc1 (stereo not shown) [Example 803, 4-chloro-N-(2,5-difluorophenyl)-N-(2-{3-[(4-methoxyphenyl)sulfinyl]propoxy}benzyl)benzenesulfonamide]",–,IC50 [1]: 100 to 500 nM
"O=S(=O)(c1ccc(Cl)cc1)N(Cc1ccccc1OCCCN1CCCCC1)c1cccc(Br)c1 [Example 804, N-(3-bromophenyl)-4-chloro-N-{2-[3-(1-piperidinyl)propoxy]benzyl}benzenesulfonamide hydrochloride]",–,IC50 [1]: 100 to 500 nM
"O=S(=O)(c1ccccc1)N(Cc1ccccc1OCCCN1CCC(O)C1)c1ccccc1 (stereo not shown) [Example 809, N-{2-[3-(3-hydroxy-1-pyrrolidinyl)propoxy]benzyl}-N-phenylbenzenesulfonamide hydrochloride]",100 to 500 nM,–
"C[C@@H]1CCC[C@H](C)N1CCCOc1ccccc1CN(c1ccccc1)S(=O)(=O)c1ccc(Cl)cc1 [Example 812, 4-chloro-N-(2-{3-(2R, 6S)-2,6-dimethylpiperidinyl]propoxy}benzyl)-N-phenylbenzenesulfonamide hydrochloride]",–,IC50 [3]: 100 to 500 nM
"O=S(=O)(c1ccc(Cl)cc1)N(Cc1ccccc1OCCCN1CCCCC1)c1cc(Cl)cc(Cl)c1 [Example 816, 4-chloro-N-(3,5-dichlorophenyl)-N-{2-[3-(1-piperidinyl)propoxy]benzyl}benzenesulfonamide hydrochloride]",100 to 500 nM,–
"O=S(=O)(CCCOc1ccccc1CN(c1cc(F)ccc1F)S(=O)(=O)c1ccc(Cl)cc1)c1ccccc1 [Example 818, 4-chloro-N-(2,5-difluorophenyl)-N-{2-[3-(phenylsulfonyl)propoxy]benzyl}benzenesulfonamide]",100 to 500 nM,–
"CC(c1ccccc1OCCCN(C)C(=O)Oc1ccccc1)N(c1cc(F)ccc1F)S(=O)(=O)c1ccc(Cl)cc1 (stereo not shown) [Example 826, phenyl 3-[2-(1-{[(4-chlorophenyl)sulfonyl]-2,5-difluoroanilino}ethyl)phenoxy]propyl(methyl)carbamate]",–,IC50 [3]: 100 to 500 nM
"O=S(=O)(c1ccc(Cl)cc1)N(Cc1ccccc1OCCCN1CCCCC1)CC1CCC1 [Example 827, 4-chloro-N-(cyclobutylmethyl)-N-{2-[3-(1-piperidinyl)propoxy]benzyl}benzenesulfonamide hydrochloride]",100 to 500 nM,–
"O=C(/C=C\c1ccccc1)N1CCCCC1CCOc1ccccc1CN(c1cc(F)ccc1F)S(=O)(=O)c1ccc(Cl)cc1 (stereo not shown) [Example 832, 4-chloro-N-(2,5-difluorophenyl)-N-[2-(2-{1-[(2Z)-3-phenyl-2-propenoyl]-2-piperidinyl}ethoxy)benzyl]benzenesulfonamide]",100 to 500 nM,–
"O=S(=O)(c1ccc(Cl)cc1)N(Cc1ccccc1OCCCN1CCC(O)(C(F)(F)F)CC1)c1ccccc1 [Example 833, 4-chloro-N-(2-{3-[4-hydroxy-4-(trifluoromethyl)-1-piperidinyl]propoxy}benzyl)-N-phenylbenzenesulfonamide hydrochloride]",100 to 500 nM,–
"O=S(=O)(c1ccc(Cl)cc1)N(Cc1ccccc1OCCCN1CCCCC1)C1CCCC1 [Example 835, 4-chloro-N-cyclopentyl-N-{2-[3-(1-piperidinyl)propoxy]benzyl}benzenesulfonamide hydrochloride]",100 to 500 nM,–
"C[C@H](c1ccccc1OCCCN)N(c1cc(F)ccc1F)S(=O)(=O)c1cccc(Cl)c1 [Example 836, N-{(1R)-1-[2-(3-aminopropoxy)phenyl}ethyl}-3-chloro-N-(2,5-difluorophenyl)benzenesulfonamide]",100 to 500 nM,–
"CCCCC(CC)C(=O)N(C)CCCOc1ccccc1CN(c1cc(F)ccc1F)S(=O)(=O)c1ccc(Cl)cc1 (stereo not shown) [Example 837, N-{3-[2-({[(4-chlorophenyl)sulfonyl]-2,5-difluoroanilino}methyl)phenoxy]propyl}-2-ethyl N-methylhexanamide]",–,IC50 [3]: 100 to 500 nM

Compound,IC50 [2],other results
"CC(c1ccccc1OCCCN(C)C(=O)c1ccc(-c2ccccc2)cc1)N(c1cc(F)ccc1F)S(=O)(=O)c1ccc(Cl)cc1 (stereo not shown) [Example 840, N-{3-[2-(1-{[(4-chlorophenyl)sulfonyl]-2,5-difluoroanilino}ethyl)phenoxy]propyl}-N-methyl[1,1′-biphenyl]-4-carboxamide]",–,IC50 [3]: 100 to 500 nM
"CN(CCCOc1ccccc1CN(c1cc(F)ccc1F)S(=O)(=O)c1ccc(Cl)cc1)C(=O)/C=C\c1ccccc1 [Example 841, (2Z)-N-{3-[2-({[(4-chlorophenyl)sulfonyl]-2,5-difluoroanilino}methyl)phenoxy]propyl}-N methyl-3-phenyl-2-propenamide]",–,IC50 [3]: 100 to 500 nM
"CC#CCCCN(Cc1ccccc1OCCCN1CCCCC1)S(=O)(=O)c1ccc(Cl)cc1 [Example 842, 4-chloro-N-(4-hexynyl)-N-{2-[3-(1-piperidinyl)propoxy]benzyl}benzenesulfonamide hydrochloride]",100 to 500 nM,–
"O=C(c1ccc(-c2ccccc2)cc1)N1CCCCC1CCOc1ccccc1CN(c1cc(F)ccc1F)S(=O)(=O)c1ccc(Cl)cc1 (stereo not shown) [Example 845, N-(2-{2-[1-([1,1′-biphenyl]-4-ylcarbonyl)-2-piperidinyl]ethoxy}benzyl)-4-chloro-N-(2,5-difluorophenyl)benzenesulfonamide]",100 to 500 nM,–
"O=S(=O)(c1ccc(Cl)cc1)N(Cc1ccccc1OCCCN1CCCCC1)CC1CCCC1 [Example 848, 4-chloro-N-(cyclopentylmethyl)-N-{2-[3-(1-piperidinyl)propoxy]benzyl}benzenesulfonamide hydrochloride]",100 to 500 nM,–
"CCN(CC)C(=O)N(C)CCCOc1ccccc1CN(c1cc(F)ccc1F)S(=O)(=O)c1ccc(Cl)cc1 [Example 849, 4-chloro-N-(2-{3-[[(diethylamino)carbonyl](methyl)amino]propoxy}benzyl)-N-(2,5-difluorophenyl)benzenesulfonamide]",100 to 500 nM,–
"O=S(=O)(c1ccc(Cl)cc1)N(Cc1ccccc1OCCSC1CCCCC1)c1cc(F)ccc1F [Example 850, 4-chloro-N-{2-[2-(cyclohexylsulfanyl)ethoxy]benzyl}-N-(2,5-difluorophenyl)benzenesulfonamide]",100 to 500 nM,–
"O=S(=O)(c1ccc(Cl)cc1)N(Cc1ccccc1OCCCN1CCCCCC1)c1ccccc1 [Example 851, N-{2-[3-(1-azepanyl)propoxy]benzyl}-4-chloro-N-phenylbenzenesulfonamide hydrochloride]",100 to 500 nM,–
"O=S(=O)(c1ccc(Cl)cc1)N(Cc1ccccc1OCCCN1CCCCC1)C1CCCCC1 [Example 852, 4-chloro-N-cyclohexyl-N-{2-[3-(1-piperidinyl)propoxy]benzyl}benzenesulfonamide hydrochloride]",100 to 500 nM,–
"C[C@H](c1ccccc1Br)N(c1cc(F)ccc1F)S(=O)(=O)c1ccc(Cl)cc1 [Example 855, N-[(1R)-1-(2-bromophenyl)ethyl]-4-chloro-N-(2,5-difluorophenyl)benzenesulfonamide]",100 to 500 nM,–
"O=S(=O)(c1ccc(Cl)cc1)N(Cc1ccccc1OCCCN1CCOCC1)c1ccccc1 [Example 859, 4-chloro-N-{2-[3-(4-morpholinyl)propoxy]benzyl}-N-phenylbenzenesulfonamide hydrochloride]",100 to 500 nM,–
"Cc1cccc(C(=O)N2CCCCC2CCOc2ccccc2CN(c2cc(F)ccc2F)S(=O)(=O)c2ccc(Cl)cc2)c1 (stereo not shown) [Example 860, 4-chloro-N-(2,5-difluorophenyl)-N-(2-{2-[1-(3-methylbenzoyl)-2-piperidinyl]ethoxy}benzyl)benzenesulfonamide]",100 to 500 nM,–
"C[C@@H](c1ccccc1OCCCn1ccnc1)N(c1cc(F)ccc1F)S(=O)(=O)c1ccc(Cl)cc1 [Example 861, 4-chloro-N-(2,5-difluorophenyl)-N-((1S)-1-{2-[3-(1H-imidazol-1-yl)propoxy]phenyl}ethyl)benzenesulfonamide hydrochloride]",–,"IC50 (approximately 16 hours incubation, hydrochloride): 100 to 500 nM"
"CCC1CCCCN1CCCOc1ccccc1CN(c1ccccc1)S(=O)(=O)c1ccc(Cl)cc1 (stereo not shown) [Example 865, 4-chloro-N-{2-[3-(2-ethyl-1-piperidinyl)propoxy]benzyl}-N-phenylbenzenesulfonamide hydrochloride]",100 to 500 nM,–
"O=S(=O)(c1ccc(Cl)cc1)N(Cc1ccccc1OCCCN1CCCCC1)c1ccccc1Br [Example 866, N-(2-bromophenyl)-4-chloro-N-{2-[3-(1-piperidinyl)propoxy]benzyl}benzenesulfonamide hydrochloride]",100 to 500 nM,–
